Test results: US20240294551A1 (AMGEN INC., priority 2022, published 2024)

Tests used:
[1] = target: His-tagged KRAS G12D protein (Homo sapiens (Human), UniProt P01116, G12D); assay: KRAS G12D TR-FRET Assay; format: binding; details: read-out: KRAS G12D Binding IC50
Summary of the method: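 His-tagged KRAS G12D (diluted to 20 nM in pH 7.4 HEPES buffer with 10 mM MgCl2 and 10 μM GDP) was preincubated with titrated compound for 30 min at room temperature. Biotinylated KRPep-2d peptide (diluted to 20 nM) was then added for 1 h, and displacement was monitored by TR-FRET.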

[2] = target: GDP-bound KRAS protein (aa 1-169), containing both G12D and C118A amino acid substitutions (Homo sapiens (Human), UniProt P01116, C118A/G12D); assay: KRAS G12D Coupled Nucleotide Exchange Assay; format: biochemical; details: read-out: KRAS G12D Coupled Exchange IC50
Sequence of GDP-bound KRAS protein (aa 1-169), containing both G12D and C118A amino acid substitutions (P01116 other isoform, or with tags, fused parts or gaps G12D/C118A): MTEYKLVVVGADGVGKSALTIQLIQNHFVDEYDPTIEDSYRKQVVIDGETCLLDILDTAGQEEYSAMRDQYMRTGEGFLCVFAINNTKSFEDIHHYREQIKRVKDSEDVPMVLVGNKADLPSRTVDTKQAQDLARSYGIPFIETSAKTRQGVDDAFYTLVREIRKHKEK

[3] = test system: p-ERK in PANC 04.03 tumor-bearing mice; assay: Tumor Pharmacodynamic Assay (p-ERK inhibition in PANC 04.03 tumors); format: in vivo; details: Mus musculus; PANC 04.03 tumor-bearing female athymic nude mice; single oral dose 100 mg/kg; tumors harvested 2 hr later; relative to vehicle group
Procedure: Tumor Pharmacodynamic Assays
Inhibitor pharmacodynamic effects were assessed in PANC 04.03 tumor-bearing mice. PANC 04.03 tumor cells (5.0E+06 cells) were injected subcutaneously into the flank of female athymic nude mice in a mixture with Matrigel (BD Bioscience). Mice received a single oral dose of either vehicle or inhibitor (100 mg/kg) when the average tumor size reached -300-600 mm^3 (n=3/group) and harvested 2 hours later. Tumor samples were collected, snap frozen, and processed for analysis by pulverizing with a cryoPREP® Dry Impactor (Covaris). Pulverized samples were resuspended in RIPA lysis buffer containing protease and phosphatase inhibitors and homogenized. Cleared lysates were analyzed using phospho-ERK1/2 and total ERK1/2 whole cell lysate kits (Meso Scale Discovery) according to the manufacturer's protocol. Phospho-ERK1/2 signal was normalized to total ERK1/2 signal for a given sample, and percent inhibition of p-ERK was calculated relative to the vehicle group.

[4] = test system: Phosphorylation of ERK1/2 in AsPC-1 cells; assay: Phospho-ERK1/2 MSD Assay; format: cell-based, human; details: Homo sapiens, ASPC1, 2 h, read-out: 2 h p-ERK (AsPC-1 cells), IC50
Summary of the method: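 Read-out: MSD electrochemiluminescent detection of phosphorylated ERK1/2 in whole-cell lysates, fitted to a 4-parameter logistic curve for IC50. Prior to lysis, AsPC-1 cells (25,000 per well) received a 2 h compound dose-response at 37 °C.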

AsPC-1 cells = assay: AsPC-1 CTG Assay (CellTiter-Glo cell viability); format: cell-based, human; details: Homo sapiens, ASPC1, 72 h, AsPC-1, 72 h; first value of the cell; read-out: G12D/C/V Cell Proliferation CTG (72 h) AsPC-1
Summary of the method: (§1)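 Human pancreatic AsPC-1 or colon SW620 cells in RPMI 1640 with 10% FBS, seeded overnight, then exposed to serially diluted compound for 72 h at 37 °C. CellTiter-Glo luminescence normalized to DMSO control; IC50 from a 4-parameter logistic model.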

SW620 cells = assay: SW620 CTG Assay (CellTiter-Glo cell viability); format: cell-based, human; details: Homo sapiens, SW-620; SW620, 72 h; third value of the cell; read-out: G12D/C/V Cell Proliferation CTG (72 h) SW620
Summary of the method: as §1

MIA PaCa-2 cells = assay: MIA PaCa-2 CTG Assay (CellTiter-Glo cell viability); format: cell-based, human; details: Homo sapiens; Mia PaCa-2, 72 h; second value of the cell; read-out: G12D/C/V Cell Proliferation CTG (72 h) Mia PaCa-2
Summary of the method: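 Human pancreatic carcinoma cells in RPMI 1640 with 10% FBS, seeded at 1.67E+04 cells/mL and left overnight, were treated with serially diluted compound for 72 h at 37° C, 5% CO2. Viability was read by CellTiter-Glo luminescence normalized to DMSO; IC50 came from a 4-parameter logistic fit.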

Sequence of His-tagged KRAS G12D protein (P01116 other isoform, or with tags, fused parts or gaps G12D): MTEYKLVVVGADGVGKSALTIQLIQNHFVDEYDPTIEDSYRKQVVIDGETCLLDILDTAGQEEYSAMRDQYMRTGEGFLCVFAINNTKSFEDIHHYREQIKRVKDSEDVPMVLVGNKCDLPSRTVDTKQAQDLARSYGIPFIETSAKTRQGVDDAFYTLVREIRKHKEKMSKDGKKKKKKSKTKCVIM

Structure (SMILES) | IC50 [1] | IC50 [2] | inhibition in vivo at 100 mg/kg [3] | IC50 [4] | IC50 (AsPC-1 cells) | IC50 (SW620 cells) | IC50 (MIA PaCa-2 cells)
C[C@@]12CCCN(C1)c1nc(OC[C@@]34CCCN3C[C@H](F)C4)nc3c(F)c(ncc13)-c1cccc3ccc(F)c(c13)CCCC(=O)N2 [Example 7, (15R)-22,31-Difluoro-8-(((2R,7aS)-2-fluorotetrahydro-1H-pyrrolo[1,2-a]pyrrol-7a(5H)-yl)methoxy)-15-methyl-3,7,9,11,16-pentaazahexacyclo[19.7.1.1˜2,6˜.1˜11,15˜.0˜5,10˜.0˜25,29˜]hentriaconta-1(28),2(31),3,5,7,9,21,23,25(29),26-decaen-17-one bis(2,2,2-trifluoroacetate)] | 15 nM | 15 nM | 21% | 260 nM | – | – | –
O=C1OCCc2c(Cl)cc3[nH]ncc3c2-c2ncc3c(nc(OC[C@@]45CCCN4C[C@H](F)C5)nc3c2F)N2CCC[C@]3(C2)C[C@H](C3)O1 [Example 249, (1S,3R)-10-chloro-32-fluoro-24-(((2R,7aS)-2-fluorotetrahydro-1H-pyrrolo[1,2-a]pyrrol-7a(5H)-yl)methoxy)-4,6-dioxa-13,14,19,23,25,27-hexaazaheptacyclo[25.3.1.1~1,3~.1~18,22~.0~9,17~.0~12,16~.0~21,26~]tritriaconta-9,11,14,16,18(32),19,21,23,25-nonaen-5-one] | 4 nM | 1 nM | 90% | 0.7 nM | 5 nM | 3 nM | 2 nM
O[C@@H]1c2ncc(o2)CCc2c(Cl)cc3[nH]ncc3c2-c2ncc3c(nc(OC[C@@]45CCCN4C[C@H](F)C5)nc3c2F)N2CCC[C@@H]1C2 [Example 233] | 4 nM | 3 nM | 23% | 1 nM | 2 nM | 1 nM | –
CN1CCC[C@H]1COc1nc2c3cnc(c(F)c3n1)-c1c(c(Cl)cc3[nH]ncc13)CCOC(=O)O[C@H]1C[C@]3(CCCN2C3)C1 (single isomer, unassigned) [Example 212] | 4 nM | 3 nM | 85% | 5.3 nM | 79 nM | 20 nM | 24 nM
O=C1OCCc2c(Cl)cc3[nH]ncc3c2-c2ncc3c(nc(OC[C@@]45CCCN4C[C@H](F)C5)nc3c2F)N2CCO[C@]3(C2)C[C@H](C3)O1 [Example 248, (1R,3R)-10-chloro-32-fluoro-24-(((2R,7aS)-2-fluorotetrahydro-1H-pyrrolo[1,2-a]pyrrol-7a(5H)-yl)methoxy)-4,6,30-trioxa-13,14,19,23,25,27-hexaazaheptacyclo[25.3.1.1~1,3~.1~18,22~.0~9,17~.0~12,16~.0~21,26~]tritriaconta-9,11,14,16,18(32),19,21,23,25-nonaen-5-one] | 4 nM | 2 nM | 85% | 7.8 nM | 13 nM | – | 7 nM
CN1CCC[C@H]1COc1nc2c3cnc(c(F)c3n1)-c1c(c(Cl)cc3[nH]ncc13)CCCOC(=O)O[C@]1(C)COCCN2C1 [Example 181, (26S)-18-chloro-32-fluoro-26-methyl-4-(((2S)-1-methyl-2-pyrrolidinyl)methoxy)-23,25,28-trioxa-1,3,5,9,14,15-hexaazahexacyclo[24.4.1.1~6,10~.0~2,7~.0~11,19~.0~12,16~]dotriaconta-2,4,6,8,10(32),11,13,16,18-nonaen-24-one] | 6 nM | 3 nM | 65% | 18.8 nM | – | 8 nM | 10 nM
C[C@@]12COCCN(C1)c1nc(OCC34CCCN3CCC4)nc3c(F)c(ncc13)-c1c(c(Cl)cc3[nH]ncc13)CCCOC(=O)O2 [Example 209, (26S)-18-chloro-32-fluoro-26-methyl-4-(tetrahydro-1H-pyrrolo[1,2-a]pyrrol-7a(5H)-ylmethoxy)-23,25,28-trioxa-1,3,5,9,14,15-hexaazahexacyclo[24.4.1.1~6,10~.0~2,7~.0~11,19~.0~12,16~]dotriaconta-2,4,6,8,10(32),11,13,16,18-nonaen-24-one] | 5 nM | 3 nM | 63% | 3.9 nM | 3 nM | 3 nM | –
C[C@@]12CCCCN(C1)c1nc(OC[C@@]34CCCN3C[C@H](F)C4)nc3c(F)c(ncc13)-c1c(c(Cl)cc3[nH]ncc13)CCCCC(=O)N2 [Example 166, (26R)-18-chloro-32-fluoro-4-(((2R,7aS)-2-fluorotetrahydro-1H-pyrrolo[1,2-a]pyrrol-7a(5H)-yl)methoxy)-26-methyl-1,3,5,9,14,15,25-heptaazahexacyclo [24.4.1.1~6,10~.0~2,7~.0~11,19~.0~12,16~]dotriaconta-2,4,6,8,10(32),11,13,16,18-nonaen-24-one] | 5 nM | 3 nM | 63% | 16.2 nM | 68 nM | – | 90 nM
C[C@@]12CCCN(C1)c1nc(OC[C@@]34CCCN3C[C@H](F)C4)nc3c(F)c(c(F)cc13)-c1cc(O)cc3ccc(F)c(c13)CCCC(=O)N2 [Example 15, (15R)-3,22,31-Trifluoro-8-(((2R,7aS)-2-fluorotetrahydro-1H-pyrrolo[1,2-a]pyrrol-7a(5H)-yl)methoxy)-27-hydroxy-15-methyl-7,9,11,16-tetraazahexacyclo[19.7.1.1˜2,6˜.1˜11,15˜.0˜5,10˜.0˜25,29˜]hentriaconta-1(28),2(31),3,5,7,9,21,23,25(29),26-decaen-17-one bis(2,2,2-trifluoroacetate)] | 4 nM | 3 nM | 0% | 19 nM | 141 nM | 80 nM | –
Cc1cc2[nH]ncc2c2c1CCCOC(=O)O[C@@H]1COCCN(C1)c1nc(OC[C@@]34CCCN3C[C@H](F)C4)nc3c(F)c-2ncc13 [Example 97, (26S)-32-fluoro-4-(((2R,7aS)-2-fluorotetrahydro-1H-pyrrolo[1,2-a]pyrrol-7a(5H)-yl)methoxy)-18-methyl-23,25,28-trioxa-1,3,5,9,14,15-hexaazahexacyclo[24.4.1.1~6,10~.0~2,7~.0~11,19~.0~12,16~]dotriaconta-2,4,6,8,10(32),11,13,16,18-nonaen-24-one] | 2 nM | 1 nM | 85% | 9 nM | 80 nM | 20.8 nM | 20 nM
O=C1COCCCc2c(Cl)cc3[nH]ncc3c2-c2ncc3c(nc(OC[C@@]45CCCN4C[C@H](F)C5)nc3c2F)N2CC[C@H]3CCN1[C@H]3C2 [Example 168, (29S,33R)-18-chloro-34-fluoro-4-(((2R,7aS)-2-fluorotetrahydro-1H-pyrrolo[1,2-a]pyrrol-7a(5H)-yl)methoxy)-23-oxa-1,3,5,9,14,15,26-heptaazaheptacyclo[24.5.2.1~6,10~.0~2,7~.0~11,19~.0~12,16~.0~29,33~]tetratriaconta-2,4,6,8,10(34),11,13,16,18-nonaen-25-one] | 3 nM | 1 nM | 65% | 1.3 nM | 10 nM | 3 nM | –
C[C@@]12CCCN(C1)c1nc(OC[C@@]34CCCN3C[C@H](F)C4)nc3c(F)c(ncc13)-c1cc(O)cc3ccc(F)c(c13)CCCC(=O)N2 [Example 4, (15R)-22,31-Difluoro-8-(((2R,7aS)-2-fluorotetrahydro-1H-pyrrolo[1,2-a]pyrrol-7a(5H)-yl)methoxy)-27-hydroxy-15-methyl-3,7,9,11,16-pentaazahexacyclo[19.7.1.1˜2,6˜.1˜11,15˜.0˜5,10˜.0˜25,29˜]hentriaconta-1(28),2(31),3,5,7,9,21,23,25(29),26-decaen-17-one bis(2,2,2-trifluoroacetate)] | 4 nM | 2 nM | – | 3 nM | 14 nM | 7 nM | 5 nM
